Test results as given in patent publication US10604509B2, “Nrf2 regulators” (GlaxoSmithKline Intellectual Property Development Limited, priority 2015, dated 2020).
pEC50: −log10 of the molar value. Structures can show the parent of a compound that is named as a salt.

These compounds were tested on NQO1 specific enzyme activity in BEAS-2B cells (assay: BEAS-2B NQO1 MTT assay). Details: Homo sapiens, BEAS-2B, 48 h, BEAS-2B cells, 48 hours with compound, MTT readout; read-out: EC50 of NQO1 specific activity induction.
Format: cell-based
Procedure, shortened: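 NQO1 specific activity, an NRF2 activation marker, read kinetically as absorbance change at 570 nm for 30 min after MTT cocktail addition to crude lysates of BEAS-2B cells exposed 48 h to compound. Three-parameter fit of Delta OD/min against log concentration gives EC50; lysate portion used for Cell Titer Glo.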

Compound	pEC50
Cc1ccc(C(c2ccc3c(nnn3C)c2C)C(C)(C)C(=O)O)cc1Cn1ccnc1CN1C2CCC1CC2 (stereo not shown) [Example 155, 3-(3-((2-(7-Azabicyclo[2.2.1]heptan-7-ylmethyl)-1H-imidazol-1-yl)methyl)-4-methylphenyl)-3-(1,4-dimethyl-1H-benzo[d][1,2,3]triazol-5-yl)-2,2-dimethylpropanoic Acid, Trifluoroacetic Acid Salt]	7.00 to 8.00
Cc1ccc(C(c2ccc3c(nnn3C)c2C)C(C)(C)C(=O)O)cc1Cn1ccnc1CN1C2CCCC1CC2 (stereo not shown) [Example 156, 3-(3-((2-(8-Azabicyclo[3.2.1]octan-8-ylmethyl)-1H-imidazol-1-yl)methyl)-4-methylphenyl)-3-(1,4-dimethyl-1H-benzo[d][1,2,3]triazol-5-yl)-2,2-dimethylpropanoic Acid, Trifluoroacetic Acid Salt]	7.00 to 8.00
Cc1c(C(CC(=O)O)c2ccc(Cl)c(CN3CCCC(n4cccn4)C3)c2)ccc2c1nnn2C (stereo not shown) [Example 160, 3-(3-((3-(1H-Pyrazol-1-yl)piperidin-1-yl)methyl)-4-chlorophenyl)-3-(1,4-dimethyl-1H-benzo[d][1,2,3]triazol-5-yl)propanoic Acid, Formic Acid Salt]	5.00 to 6.00
Cc1c(C(CC(=O)O)c2ccc(Cl)c(CN3CCCC(O)C3)c2)ccc2c1nnn2C (stereo not shown) [Example 161, 3-(4-chloro-3-((3-hydroxypiperidin-1-yl)methyl)phenyl)-3-(1,4-dimethyl-1H-benzo[d][1,2,3]triazol-5-yl)propanoic Acid]	5.00 to 6.00
Cc1ccc(C(c2ccc3c(nnn3C)c2C)C(C)(C)C(=O)O)cc1CN1CCCC(n2cccn2)C1 (stereo not shown) [Example 162, 3-(3-((3-(1H-Pyrazol-1-yl)piperidin-1-yl)methyl)-4-methylphenyl)-3-(1,4-dimethyl-1H-benzo[d][1,2,3]triazol-5-yl)-2,2-dimethylpropanoic Acid]	6.00 to 7.00
CCCn1cc(CCC(CC(=O)O)c2ccc(C)c(CN3CCCC(n4cccn4)C3)c2)nn1 (stereo not shown) [Example 163, 3-(3-((3-(1H-pyrazol-1-yl)piperidin-1-yl)methyl)-4-methylphenyl)-5-(1-propyl-1H-1,2,3-triazol-4-yl)pentanoic Acid, Formic Acid Salt]	5.00 to 6.00
COc1cc(C(CC(=O)O)c2ccc(Cl)c(CN3CCCC(n4cccn4)C3)c2)c(C)c2nnn(C)c12 (stereo not shown) [Example 164, 3-(3-((3-(1H-pyrazol-1-yl)piperidin-1-yl)methyl)-4-chlorophenyl)-3-(7-methoxy-1,4-dimethyl-1H-benzo[d][1,2,3]triazol-5-yl)propanoic Acid, Formic Acid Salt]	6.00 to 7.00
COc1ccc2c(c1)CN(Cc1cc([C@H](CC(=O)O)c3ccc4c(nnn4C)c3C)ccc1C)CC(C)(C)O2 [Example 165, (S)-3-(1,4-Dimethyl-1H-benzo[d][1,2,3]triazol-5-yl)-3-(3-((7-methoxy-2,2-dimethyl-2,3-dihydrobenzo[f][1,4]oxazepin-4(5H)-yl)methyl)-4-methylphenyl)propanoic acid, 0.5 Formic Acid Salt]	8.00 to 9.00
COc1ccc2c(c1)CN(Cc1cc([C@@H](CC(=O)O)c3ccc4c(nnn4C)c3C)ccc1C)CC(C)(C)O2 [Example 166, (R)-3-(1,4-Dimethyl-1H-benzo[d][1,2,3]triazol-5-yl)-3-(3-((7-methoxy-2,2-dimethyl-2,3-dihydrobenzo[f][1,4]oxazepin-4(5H)-yl)methyl)-4-methylphenyl)propanoic acid]	7.00 to 8.00
COc1ccc2c(c1)OC(C)(C)CN(Cc1cc([C@@H](CC(=O)O)c3ccc4c(nnn4C)c3C)ccc1C)C2 [Example 167, (R)-3-(1,4-Dimethyl-1H-benzo[d][1,2,3]triazol-5-yl)-3-(3-((8-methoxy-2,2-dimethyl-2,3-dihydrobenzo[f][1,4]oxazepin-4(5H)-yl)methyl)-4-methylphenyl)propanoic acid]	7.00 to 8.00
